Measured values reported in patent publication US20240299698A1, “PREVENTION AND TREATMENT OF POST-OPERATIVE COGNITIVE DYSFUNCTION (POCD)” (Noetix Pharma LLC, priority 2022, published 2024).

What was measured:
[1] = Body weight monitoring after surgery; type: in vivo, Male C57BI/6 mice; conditions: Acute and Chronic dose groups vs controls
Protocol: Mice were weighed 24 hours after arrival, weekly prior to the initiation of pirfenidone administration, and then daily throughout the remainder of the study. Post-induction, animals were assessed daily to monitor body condition, pain response, and general recovery parameters. • Test System: Male C57BI/6 mice • Number of Animals/Group: 12 animals per group (total of 48 mice) • Age: Cohort 1: 12 weeks at arrival • Cohort 2: 10 weeks at arrival • Model Induction: Performed at 14 weeks of age • Weight: 31.6±0.42 SEM g at time of surgery • Allocation: Animals were pseudo-randomly assigned to treatment groups balanced for weight • Health inspection: A health inspection was performed by a clinical veterinarian prior to the commencement of the study.
Mice were weighed 24 hours after arrival, weekly prior to the initiation of Test Article administration, and then daily throughout the remainder of the study.

[2] = system: hippocampal microglial cells; assay: Evaluation of hippocampal microglial cell morphology (Iba1 immunohistochemistry); type: in vivo, Male C57BI/6 mice; conditions: for Iba1-positive microglial cell morphology (activated characteristics), rank 0-2: 8 days post-surgery, n=8
Protocol: A subset of mice was evaluated to compare acute and chronic treatment of pirfenidone paradigms against Normal Control and Disease Control tissues (n=8/treatment group). A neuroinflammation marker, ionizing calcium binding adaptor molecule 1 (Iba1), was investigated in the hippocampus as an indication of the level of inflammatory response. The hippocampus is particularly vulnerable to both acute and chronic stressors, including those triggered by physical trauma.
The right hemispheres of a subsection of study mice were evaluated via fluorescent IHC analysis to investigate the impact of laparotomy and drug intervention on hippocampal inflammatory mechanisms. Iba1 was assessed as a marker of neuroinflammation because it is indicative of inflammatory response in the central nervous system.
Cryoprotected hemispheres were blocked in OCT compound (Thermofisher) and stored at −80° C. until sectioning. […]
• To obtain micrographs for quantification • Fluorescent microscope (Zeiss Axio Observer Z1) Apotome.2 imaging system Zeiss imaging software (Zen 2 Blue edition) • Settings were manually selected to allow visualization of signal on all sections (signal must be visible on low intensity sections but must not be overexposed on high intensity sections). […]
Ionized calcium-binding adapter molecule 1 (Iba1) is a microglia-specific calcium-binding protein that participates in phagocytosis in activated microglia. […] Iba1 is thus a sensitive marker of inflammation and is quantified by measuring the intensity of the Iba1 positive signal. […]
Hippocampal tissue from the right hemispheres was evaluated for functional cell morphology using non-parametric rank ordering of tissue as follows: • 0=normal morphology (ramified, mostly ramified) • 1=moderate morphology (ramified-activated) • 2=activated morphology (activated, activated ameboid, ameboid)

Q: For `Cc1ccc(=O)n(-c2ccccc2)c1` [pirfenidone, 5-methyl-1-phenyl-2-(1H)-pyridone], which “weight loss at 24 hours post-surgery” value [1] is on record?
A: The value was “did not differ between groups”.

Q: What about the “Iba1-positive microglial cell morphology (activated characteristics), rank 0-2” value ([2]; Acute) of the same molecule?
A: The value was “reduced this microglial activation”.

Q: What about the “Iba1-positive microglial cell morphology (activated characteristics), rank 0-2” value ([2]; Chronic) of the same molecule?
A: Its value is “reduced this microglial activation”.

Q: And the “microglial activation in the hippocampus (summary)” value ([2]; summary statement, regimen not distinguished)?
A: The value was “reduced microglial activation in the hippocampus”.
